Measured values from ChEMBL document CHEMBL2163222 (J Med Chem, 2012).
The source made the active and inactive calls. No cut-off for these calls is given here.

Assays:
Hs 683 [1] = test: cells; settings: Homo sapiens, Hs 683, 72 h
[2] = Growth inhibition of human OE21 cells after 3 days by MTT assay; assay type: functional, cell-based; settings: OE21, 72 h
OE33 = test: Growth inhibition of human OE33 cells after 3 days by MTT assay; assay type: functional, cell-based; settings: OE33, 72 h
[3] = biological target: Dual specificity tyrosine-phosphorylation-regulated kinase 1A (Homo sapiens, UniProt Q13627); test: Inhibition of DYRK1A kinase using RBER-CHKtide substrate by radiometric protein kinase assay
T98G = test: cells; settings: Homo sapiens, 72 h
[4] = Cytostatic activity in human U373 cells at 64 uM assessed global growth ratio after 72 hrs by quantitative video microscopy; assay type: functional, U-373MG ATCC
cells = settings: Homo sapiens, U373 MG, 72 h
[5] = Cytostatic activity in human U373 cells at 31 uM assessed global growth ratio after 72 hrs by quantitative video microscopy; assay type: functional, U-373MG ATCC
[6] = biological target: Tyrosine-protein kinase Fer (Homo sapiens) (UniProt P16591); test: Inhibition of FER assessed as residual enzyme activity at 10 uM by radiometric protein kinase assay
[7] = biological target: Calcium/calmodulin-dependent protein kinase type II subunit delta (Homo sapiens) (UniProt Q13557); test: Inhibition of CAMK2D assessed as residual enzyme activity at 10 uM by radiometric protein kinase assay
[8] = biological target: Myosin light chain kinase 2, skeletal/cardiac muscle (Homo sapiens) (UniProt Q9H1R3); test: Inhibition of MYLK2 assessed as residual enzyme activity at 10 uM by radiometric protein kinase assay
[9] = Inhibition of eIF2 protein expression in human Hs683 cells at 5 uM after 4 hrs by Western blotting method; assay type: functional, cell-based; settings: Hs 683
[10] = biological target: Serine/threonine-protein kinase 17A (Homo sapiens) (UniProt Q9UEE5); test: Inhibition of STK17A assessed as residual enzyme activity at 10 uM by radiometric protein kinase assay
[11] = biological target: TGF-beta receptor type-1 (Homo sapiens) (UniProt P36897); test: Inhibition of TGFB-R1 assessed as residual enzyme activity at 10 uM by radiometric protein kinase assay
[12] = biological target: Tyrosine-protein kinase CSK (Homo sapiens) (UniProt P41240); test: Inhibition of CSK assessed as residual enzyme activity at 10 uM by radiometric protein kinase assay
Mus musculus = organism: Mus musculus; test: Toxicity in mouse assessed as drug tolerance; assay type: organism-based; settings: in vivo
[13] = Inhibition of eIF2 protein expression in human U373 cells at 1 uM after 4 hrs by Western blotting method; assay type: functional, cell-based; settings: U-373MG ATCC
Hs 683 [14] = test: Inhibition of eIF2 activity in human Hs683 cells at 5 uM after 4 hrs by Western blotting method; assay type: functional, cell-based
[15] = Cytostatic activity in human U373 cells at 0.9 uM assessed global growth ratio after 72 hrs by quantitative video microscopy; assay type: functional, U-373MG ATCC
[16] = biological target: Myosin light chain kinase, smooth muscle (Homo sapiens) (UniProt Q15746); test: Inhibition of MYLK assessed as residual enzyme activity at 10 uM by radiometric protein kinase assay
[17] = Solubility of compound at pH 7.4; assay type: physicochemical; settings: buffer
[18] = biological target: TGF-beta receptor type-2 (Homo sapiens) (UniProt P37173); test: Inhibition of TGFB-R2 assessed as residual enzyme activity at 10 uM by radiometric protein kinase assay
[19] = biological target: Tyrosine-protein kinase Tec (Homo sapiens) (UniProt P42680); test: Inhibition of TEC assessed as residual enzyme activity at 10 uM by radiometric protein kinase assay
[20] = biological target: MAP kinase-interacting serine/threonine-protein kinase 1 (Homo sapiens) (UniProt Q9BUB5); test: Inhibition of MKNK1 assessed as residual enzyme activity at 10 uM by radiometric protein kinase assay
U-373MG ATCC = test: Inhibition of eIF2 activity in human U373 cells at 1 uM after 4 hrs by Western blotting method; assay type: functional, cell-based
[21] = biological target: Calcium/calmodulin-dependent protein kinase type II subunit alpha (Homo sapiens) (UniProt Q9UQM7); test: Inhibition of CAMK2A assessed as residual enzyme activity at 10 uM by radiometric protein kinase assay
[22] = Cytostatic activity in human U373 cells at 18 uM assessed global growth ratio after 72 hrs by quantitative video microscopy; assay type: functional, U-373MG ATCC
[23] = Cytostatic activity in human U373 cells at 24 uM assessed global growth ratio after 72 hrs by quantitative video microscopy; assay type: functional, U-373MG ATCC

Sequence of TGF-beta receptor type-1 (Homo sapiens) (P36897 whole entry): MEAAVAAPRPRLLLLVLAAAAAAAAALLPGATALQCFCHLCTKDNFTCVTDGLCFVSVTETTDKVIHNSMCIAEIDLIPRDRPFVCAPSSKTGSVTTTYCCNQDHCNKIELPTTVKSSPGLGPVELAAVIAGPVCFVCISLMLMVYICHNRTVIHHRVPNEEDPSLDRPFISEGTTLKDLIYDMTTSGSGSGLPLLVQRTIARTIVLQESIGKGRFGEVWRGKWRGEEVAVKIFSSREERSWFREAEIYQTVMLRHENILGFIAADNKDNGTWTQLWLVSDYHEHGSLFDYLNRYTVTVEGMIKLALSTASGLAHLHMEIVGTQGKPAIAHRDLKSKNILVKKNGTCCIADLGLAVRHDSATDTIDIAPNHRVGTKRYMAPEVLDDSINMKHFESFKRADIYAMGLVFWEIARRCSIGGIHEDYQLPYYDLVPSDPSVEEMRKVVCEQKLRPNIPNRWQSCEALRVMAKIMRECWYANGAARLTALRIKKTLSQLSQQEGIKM
Sequence of Serine/threonine-protein kinase 17A (Homo sapiens) (Q9UEE5 whole entry): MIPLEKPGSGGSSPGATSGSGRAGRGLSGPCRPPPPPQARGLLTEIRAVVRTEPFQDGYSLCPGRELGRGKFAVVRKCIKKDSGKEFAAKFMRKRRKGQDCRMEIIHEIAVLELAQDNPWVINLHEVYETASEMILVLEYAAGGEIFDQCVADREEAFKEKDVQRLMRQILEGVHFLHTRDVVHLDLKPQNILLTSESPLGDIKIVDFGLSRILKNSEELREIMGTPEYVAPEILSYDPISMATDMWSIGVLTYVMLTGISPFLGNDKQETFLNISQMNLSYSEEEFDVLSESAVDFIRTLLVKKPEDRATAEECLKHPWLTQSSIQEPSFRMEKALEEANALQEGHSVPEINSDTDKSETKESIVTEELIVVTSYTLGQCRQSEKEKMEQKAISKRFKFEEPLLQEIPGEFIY
Sequence of Calcium/calmodulin-dependent protein kinase type II subunit alpha (Homo sapiens) (Q9UQM7 whole entry): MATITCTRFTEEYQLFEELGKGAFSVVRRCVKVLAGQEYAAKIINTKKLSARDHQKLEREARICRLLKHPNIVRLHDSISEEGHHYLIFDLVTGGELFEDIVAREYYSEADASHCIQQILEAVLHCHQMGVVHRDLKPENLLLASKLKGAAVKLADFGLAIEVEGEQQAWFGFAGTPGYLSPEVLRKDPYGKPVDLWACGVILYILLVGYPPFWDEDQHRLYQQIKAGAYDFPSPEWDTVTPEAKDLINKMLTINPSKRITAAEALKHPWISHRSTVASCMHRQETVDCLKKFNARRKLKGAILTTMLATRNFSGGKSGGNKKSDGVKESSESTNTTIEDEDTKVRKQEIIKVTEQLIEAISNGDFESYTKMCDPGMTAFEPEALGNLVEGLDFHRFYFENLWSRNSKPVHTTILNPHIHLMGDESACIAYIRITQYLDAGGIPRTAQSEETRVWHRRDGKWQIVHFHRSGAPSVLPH
Sequence of Myosin light chain kinase 2, skeletal/cardiac muscle (Homo sapiens) (Q9H1R3 whole entry): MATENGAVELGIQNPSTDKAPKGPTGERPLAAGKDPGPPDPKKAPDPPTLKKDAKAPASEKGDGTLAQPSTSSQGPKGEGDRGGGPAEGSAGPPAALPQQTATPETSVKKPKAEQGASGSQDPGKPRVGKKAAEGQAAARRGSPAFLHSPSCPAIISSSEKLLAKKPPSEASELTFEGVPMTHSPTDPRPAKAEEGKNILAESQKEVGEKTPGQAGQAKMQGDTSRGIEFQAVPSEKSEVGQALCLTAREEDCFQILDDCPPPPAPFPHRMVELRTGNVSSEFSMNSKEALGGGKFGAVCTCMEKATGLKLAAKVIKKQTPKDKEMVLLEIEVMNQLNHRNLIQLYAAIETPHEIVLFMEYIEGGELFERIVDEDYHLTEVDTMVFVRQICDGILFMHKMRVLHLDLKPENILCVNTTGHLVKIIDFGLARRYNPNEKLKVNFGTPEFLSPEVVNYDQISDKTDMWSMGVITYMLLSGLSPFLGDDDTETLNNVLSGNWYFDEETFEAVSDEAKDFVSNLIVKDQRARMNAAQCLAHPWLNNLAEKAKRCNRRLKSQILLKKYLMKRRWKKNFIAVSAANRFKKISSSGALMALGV
Sequence of Tyrosine-protein kinase Fer (Homo sapiens) (P16591 whole entry, looked up): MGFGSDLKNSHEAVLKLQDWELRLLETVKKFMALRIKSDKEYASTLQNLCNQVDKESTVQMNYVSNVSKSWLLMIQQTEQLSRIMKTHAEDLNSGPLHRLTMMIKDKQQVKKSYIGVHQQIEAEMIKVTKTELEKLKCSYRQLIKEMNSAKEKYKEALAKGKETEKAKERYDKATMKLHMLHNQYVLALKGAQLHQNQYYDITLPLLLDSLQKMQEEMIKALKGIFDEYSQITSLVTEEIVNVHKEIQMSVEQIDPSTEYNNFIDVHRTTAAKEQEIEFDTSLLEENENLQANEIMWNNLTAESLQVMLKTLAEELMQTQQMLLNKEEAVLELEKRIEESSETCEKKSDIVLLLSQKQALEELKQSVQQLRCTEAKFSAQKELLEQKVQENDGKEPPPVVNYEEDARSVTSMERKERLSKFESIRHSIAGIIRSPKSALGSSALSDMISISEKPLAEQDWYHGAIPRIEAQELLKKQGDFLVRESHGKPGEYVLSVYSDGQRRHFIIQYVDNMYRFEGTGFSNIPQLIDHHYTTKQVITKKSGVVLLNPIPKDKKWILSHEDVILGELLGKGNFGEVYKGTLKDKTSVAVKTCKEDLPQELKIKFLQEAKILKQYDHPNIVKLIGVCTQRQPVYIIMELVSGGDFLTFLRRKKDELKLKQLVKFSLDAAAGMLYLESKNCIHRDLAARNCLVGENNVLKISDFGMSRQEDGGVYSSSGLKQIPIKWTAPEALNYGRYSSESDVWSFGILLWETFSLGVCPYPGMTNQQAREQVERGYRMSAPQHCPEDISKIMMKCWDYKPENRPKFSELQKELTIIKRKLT
Sequence of MAP kinase-interacting serine/threonine-protein kinase 1 (Homo sapiens) (Q9BUB5 whole entry, looked up): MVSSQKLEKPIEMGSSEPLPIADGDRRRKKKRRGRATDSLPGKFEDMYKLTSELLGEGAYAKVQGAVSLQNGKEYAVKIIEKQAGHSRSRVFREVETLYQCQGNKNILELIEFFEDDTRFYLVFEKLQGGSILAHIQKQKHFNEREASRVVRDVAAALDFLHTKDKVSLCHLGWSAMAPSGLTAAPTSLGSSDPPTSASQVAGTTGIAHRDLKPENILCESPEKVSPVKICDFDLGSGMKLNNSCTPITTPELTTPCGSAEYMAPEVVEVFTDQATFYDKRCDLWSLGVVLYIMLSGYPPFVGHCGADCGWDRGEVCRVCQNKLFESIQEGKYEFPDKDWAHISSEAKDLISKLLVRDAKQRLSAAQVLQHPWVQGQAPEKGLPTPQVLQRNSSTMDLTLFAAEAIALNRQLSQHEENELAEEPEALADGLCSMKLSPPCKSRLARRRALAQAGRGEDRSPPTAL
Sequence of TGF-beta receptor type-2 (Homo sapiens) (P37173 whole entry): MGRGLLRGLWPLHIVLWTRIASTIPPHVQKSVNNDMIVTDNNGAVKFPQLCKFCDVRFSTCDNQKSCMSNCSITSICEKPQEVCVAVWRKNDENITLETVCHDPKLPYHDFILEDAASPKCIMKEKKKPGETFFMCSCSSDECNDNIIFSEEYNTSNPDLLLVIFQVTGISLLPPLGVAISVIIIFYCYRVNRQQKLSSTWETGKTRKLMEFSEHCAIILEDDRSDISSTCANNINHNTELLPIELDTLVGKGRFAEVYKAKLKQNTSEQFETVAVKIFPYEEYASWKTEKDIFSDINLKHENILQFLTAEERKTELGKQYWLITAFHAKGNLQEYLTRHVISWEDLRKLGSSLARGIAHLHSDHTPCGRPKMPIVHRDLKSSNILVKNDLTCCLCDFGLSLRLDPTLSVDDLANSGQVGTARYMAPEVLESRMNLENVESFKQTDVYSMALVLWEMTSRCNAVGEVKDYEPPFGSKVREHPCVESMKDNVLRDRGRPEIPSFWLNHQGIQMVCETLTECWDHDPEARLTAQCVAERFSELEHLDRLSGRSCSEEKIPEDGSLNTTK
Sequence of Calcium/calmodulin-dependent protein kinase type II subunit delta (Homo sapiens) (Q13557 whole entry): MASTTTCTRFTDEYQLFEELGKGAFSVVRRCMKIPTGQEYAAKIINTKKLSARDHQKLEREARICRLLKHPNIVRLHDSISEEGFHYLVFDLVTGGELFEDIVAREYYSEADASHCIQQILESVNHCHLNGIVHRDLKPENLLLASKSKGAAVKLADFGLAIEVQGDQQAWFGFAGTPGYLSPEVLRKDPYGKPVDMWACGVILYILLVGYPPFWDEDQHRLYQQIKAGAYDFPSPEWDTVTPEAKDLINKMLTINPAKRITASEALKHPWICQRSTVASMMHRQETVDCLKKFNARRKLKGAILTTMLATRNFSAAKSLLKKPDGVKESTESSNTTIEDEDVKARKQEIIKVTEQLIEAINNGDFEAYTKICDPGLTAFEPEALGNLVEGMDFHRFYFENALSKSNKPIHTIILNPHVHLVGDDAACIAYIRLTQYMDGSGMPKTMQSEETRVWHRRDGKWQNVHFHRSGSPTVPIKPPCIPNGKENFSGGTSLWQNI
Sequence of Tyrosine-protein kinase Tec (Homo sapiens) (P42680 whole entry): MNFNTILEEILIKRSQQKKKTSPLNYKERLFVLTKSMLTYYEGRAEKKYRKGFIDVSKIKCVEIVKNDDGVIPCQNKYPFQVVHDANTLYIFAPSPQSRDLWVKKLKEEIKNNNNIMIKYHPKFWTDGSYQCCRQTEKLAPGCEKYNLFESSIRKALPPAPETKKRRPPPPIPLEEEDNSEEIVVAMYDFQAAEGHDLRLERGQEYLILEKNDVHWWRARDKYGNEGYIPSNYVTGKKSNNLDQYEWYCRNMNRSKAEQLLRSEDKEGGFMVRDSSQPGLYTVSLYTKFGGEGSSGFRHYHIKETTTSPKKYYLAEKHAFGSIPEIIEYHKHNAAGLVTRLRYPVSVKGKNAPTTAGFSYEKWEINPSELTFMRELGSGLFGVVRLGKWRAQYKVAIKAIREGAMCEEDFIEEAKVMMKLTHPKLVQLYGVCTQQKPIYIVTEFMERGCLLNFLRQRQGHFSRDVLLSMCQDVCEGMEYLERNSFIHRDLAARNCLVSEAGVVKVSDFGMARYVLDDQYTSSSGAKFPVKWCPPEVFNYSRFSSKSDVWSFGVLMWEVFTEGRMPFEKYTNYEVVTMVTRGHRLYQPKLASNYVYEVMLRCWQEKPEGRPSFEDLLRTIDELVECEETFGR

SMILES | IC50 (Hs 683 [1]) | IC50 [3] | IC50 (T98G) | IC50 (cells) | IC50 [2] | IC50 (OE33) | further results
COCCOc1ccc2c(c1)[nH]c1c(C)nccc12 | 53 µM | 16 µM | 61 µM | 64 µM | 53 µM | 66 µM | Ratio [4]: 0.23
Cc1nccc2c3ccc(OCC4CCCCC4)cc3n(CC3CCCCC3)c12 | 30 µM | > 10 µM | 32 µM | 31 µM | 17 µM | 15 µM | Ratio [5]: 0.17
Cc1nccc2c1[nH]c1cc(OCc3cccnc3)ccc12 | 30 µM | 10 µM | 29 µM | 24 µM | 28 µM | 31 µM | Ratio [23]: 0.29

Further lines, with some results ahead:

IC50 (Hs 683 [1]) | IC50 [3] | IC50 (T98G) | IC50 (cells) | SMILES | IC50 [2] | IC50 (OE33) | further results
4.5 µM |  | 1.9 µM | 0.9 µM | Cc1c2c(cc[n+]1Cc1ccc(F)cc1)c1ccc(OCc3cccc(F)c3)cc1n2Cc1cccc(F)c1.[Br-] | 2.9 µM | 3.4 µM | Activity [6]: 7%; Activity [7]: 2%; Activity [8]: 7%; inhibition [9]: Active; Activity [10]: < 1%; Activity [11]: 6%; Activity [12]: 10%; Activity (Mus musculus): Non-toxic; inhibition [13]: Active; inhibition (Hs 683 [14]): Active; Ratio [15]: 0.53; Activity [16]: 2%; solubility [17]: 53 µM; Activity [18]: 6%; Activity [19]: 8%; Activity [20]: 10%; inhibition (U-373MG ATCC): Active; Activity [21]: 1%
33 µM |  | 36 µM | 18 µM | Cc1nccc2c3ccc(OCc4ccccc4)cc3n(Cc3ccccc3)c12 | 28 µM | 40 µM | Ratio [22]: 0.3; solubility ([17]; read-out: solubility): < 3 µM
